Measured values from PubChem BioAssay AID206 (DTP/NCI, 2004).
Where “and” joins values, the source holds several entries; their conditions need not be identical. Identical values can stand only once. Inconclusive results are not listed.

System: nude mice, HT29 intrarenal xenograft, tumor weight T/C
Experiment: NCI In Vivo Anticancer Drug Screen. Data for tumor model HT29;CX-1 Human Adenocarcinoma (MER+) (intrarenal inoculation) in NU/NU Swiss (nude) mice
Conditions: endpoint: mean tumor weight change, higher = larger tumour
Experimental: The antitumor activity of compounds was measured in mice bearing transplantable tumors. Survival or tumor size were measured and the results are expressed as the measurement made in the treated group (T) divided by the measurement made in the vehicle treated control group (C). The tumor model used in this assay is HT29;CX-1 Human Adenocarcinoma (MER+) (intrarenal inoculation) in NU/NU Swiss (nude) mice

[1] = dose: 200.0 mg/kg/injection, schedule: Q04DX004 (sc), vehicle: saline with Tween-80
[2] = dose: 150.0 mg/kg/injection, schedule: Q04DX004 (sc), vehicle: Klucel (hydroxypropylcellulose) (HPC)
[3] = dose: 300.0 mg/kg/injection, schedule: Q04DX004 (sc), vehicle: Klucel (hydroxypropylcellulose) (HPC)
[4] = dose: 600.0 mg/kg/injection, schedule: Q04DX004 (sc), vehicle: Klucel (hydroxypropylcellulose) (HPC)
[5] = dose: 25.0 mg/kg/injection, schedule: Q01DX010 (sc), vehicle: saline with Tween-80
[6] = dose: 50.0 mg/kg/injection, schedule: Q01DX010 (sc), vehicle: saline with Tween-80
[7] = dose: 100.0 mg/kg/injection, schedule: Q01DX010 (sc), vehicle: saline with Tween-80
[8] = dose: 600.0 mg/kg/injection, schedule: Q04DX004 (sc), vehicle: saline
[9] = dose: 300.0 mg/kg/injection, schedule: Q04DX004 (sc), vehicle: saline with Tween-80
[10] = dose: 1200.0 mg/kg/injection, schedule: Q04DX004 (sc), vehicle: saline with Tween-80
[11] = dose: 1200.0 mg/kg/injection, schedule: Q04DX004 (sc), vehicle: Klucel (hydroxypropylcellulose) (HPC)
[12] = dose: 75.0 mg/kg/injection, schedule: Q04DX004 (sc), vehicle: saline
[13] = dose: 150.0 mg/kg/injection, schedule: Q04DX004 (sc), vehicle: saline

`CN=C(N)N/N=C(\C)c1ccc2c(c1)Cc1cc(/C(C)=N/NC(N)=NC)ccc1-2` was tested, and the T/C (dose: 25.0 mg/kg/injection, schedule: Q04DX004 (sc), vehicle: saline with Tween-80) was 102 % of control, the T/C (dose: 50.0 mg/kg/injection, schedule: Q04DX004 (sc), vehicle: saline with Tween-80) was 53 % of control and the T/C (dose: 100.0 mg/kg/injection, schedule: Q04DX004 (sc), vehicle: saline with Tween-80) was 105 % of control. The T/C [1] was 50 % of control.

In the case of `CC(CN1CC(=O)NC(=O)C1)N1CC(=O)NC(=O)C1` (stereo unspecified), the T/C [2] is reported as 85 % of control, the T/C [3] is reported as 40 % of control and the T/C [4] is reported as 46 % of control.

`C/C=C(\C)c1cc(=O)c2c(C)cc3c(c2o1)C(=O)c1c(O)c(C2CC(C)(N(C)C)C(O)C(C)O2)cc(C2CC(N(C)C)C(O)C(C)O2)c1C3=O` (stereo unspecified) was tested, and the T/C (dose: 0.5 mg/kg/injection, schedule: Q04DX004 (sc), vehicle: saline) was 78 % of control, the T/C (dose: 2.0 mg/kg/injection, schedule: Q04DX004 (sc), vehicle: saline) was 112 % of control and the T/C (dose: 4.0 mg/kg/injection, schedule: Q04DX004 (sc), vehicle: saline) was 82 % of control. For the same molecule, the T/C (dose: 4.0 mg/kg/injection, schedule: Q04DX004 (sc), vehicle: suspension in saline) was 104 % of control, the T/C (dose: 8.0 mg/kg/injection, schedule: Q04DX004 (sc), vehicle: suspension in saline) was 64 % of control and the T/C (dose: 16.0 mg/kg/injection, schedule: Q04DX004 (sc), vehicle: suspension in saline) was 90 % of control.

With `Cc1c2ccc3ccccc3c2c[n+]2ccccc12` the T/C (dose: 3.75 mg/kg/injection, schedule: Q04DX004 (sc), vehicle: Klucel (hydroxypropylcellulose) (HPC)) was 84 % of control, the T/C (dose: 7.5 mg/kg/injection, schedule: Q04DX004 (sc), vehicle: Klucel (hydroxypropylcellulose) (HPC)) was 66 % of control and the T/C (dose: 15.0 mg/kg/injection, schedule: Q04DX004 (sc), vehicle: Klucel (hydroxypropylcellulose) (HPC)) was 50 % of control. The T/C (dose: 30.0 mg/kg/injection, schedule: Q04DX004 (sc), vehicle: Klucel (hydroxypropylcellulose) (HPC)) was 41 % of control.

`COc1cccc2c1C(=O)c1c(O)c3c(c(O)c1C2=O)C[C@@](O)(C(=O)CO)C[C@@H]3OC1CC(N)C(OC)C(C)O1` (stereo partly specified) was tested, and the T/C (dose: 3.13 mg/kg/injection, schedule: Q04DX004 (sc), vehicle: saline) was 207 % of control.

`CN(C)N=Nc1cn[nH]c1C(N)=O` was tested, and the T/C (dose: 300.0 mg/kg/injection, schedule: Q04DX004 (sc), vehicle: suspension in saline) was 85 % of control, the T/C (dose: 600.0 mg/kg/injection, schedule: Q04DX004 (sc), vehicle: suspension in saline) was 67 % of control and the T/C (dose: 1200.0 mg/kg/injection, schedule: Q04DX004 (sc), vehicle: suspension in saline) was 74 % of control.

With `O=C1C(=O)c2ccccc2C(O)=C1CC=C(Cl)Cl` the T/C (dose: 100.0 mg/kg/injection, schedule: Q01DX010 (sc), vehicle: water) was 183 % of control and the T/C (dose: 400.0 mg/kg/injection, schedule: Q01DX010 (sc), vehicle: water) was 74 % of control and 213 % of control.

`O=Cc1ccc([N+](=O)[O-])s1` was tested, and the T/C [5] was 166 % of control, the T/C [6] was 176 % of control and the T/C [7] was 97 % of control.

In the case of `CCCCCC[C@@H](O)C/C=C\CCCCCCCC(=O)OCCO`, the T/C (dose: 300.0 mg/kg/injection, schedule: Q04DX004 (sc), vehicle: saline) is reported as 21 % of control, the T/C [8] is reported as 155 % of control and the T/C (dose: 1200.0 mg/kg/injection, schedule: Q04DX004 (sc), vehicle: saline) is reported as 169 % of control. The T/C (dose: 2400.0 mg/kg/injection, schedule: Q04DX004 (sc), vehicle: saline) was 230 % of control.

With `O=C(O)CC(NC(=O)CP(=O)(O)O)C(=O)O.[NH-]C1CCCCC1[NH-].[Pt+2]` (stereo unspecified) the T/C (dose: 6.25 mg/kg/injection, schedule: Q04DX004 (sc), vehicle: dextrose) was 97 % of control, the T/C (dose: 12.5 mg/kg/injection, schedule: Q04DX004 (sc), vehicle: dextrose) was 25 % of control and the T/C (dose: 25.0 mg/kg/injection, schedule: Q04DX004 (sc), vehicle: dextrose) was 35 % of control.

`Cc1cc(=O)n2c3c(c4c(cc13)c(CN(C)C)cc(=O)n4C)OC2` was tested, and the T/C (dose: 75.0 mg/kg/injection, schedule: Q04DX004 (sc), vehicle: saline with Tween-80) was 117 % of control and the T/C (dose: 150.0 mg/kg/injection, schedule: Q04DX004 (sc), vehicle: saline with Tween-80) was 57 % of control.

With `O=C(C#Cc1ccccc1)c1ccccc1` the T/C (dose: 12.5 mg/kg/injection, schedule: Q04DX004 (sc), vehicle: Klucel (hydroxypropylcellulose) (HPC)) was 71 % of control, the T/C (dose: 25.0 mg/kg/injection, schedule: Q04DX004 (sc), vehicle: Klucel (hydroxypropylcellulose) (HPC)) was 64 % of control and the T/C (dose: 50.0 mg/kg/injection, schedule: Q04DX004 (sc), vehicle: Klucel (hydroxypropylcellulose) (HPC)) was 88 % of control. For the same molecule, the T/C (dose: 100.0 mg/kg/injection, schedule: Q04DX004 (sc), vehicle: Klucel (hydroxypropylcellulose) (HPC)) was 76 % of control.

For `CN(C=O)C(C(=O)Nc1cccc2c(OC(=O)C(N(C)C=O)(N(C)C=O)N(C)C=O)c(N=Nc3ccc(S(=O)(=O)Nc4nccs4)cc3)cc(N=Nc3ccc(S(=O)(=O)Nc4nccs4)cc3)c12)(N(C)C=O)N(C)C=O` (tested in a mixture with another compound), the T/C [9] was 91 % of control, the T/C (dose: 600.0 mg/kg/injection, schedule: Q04DX004 (sc), vehicle: saline with Tween-80) was 103 % of control and the T/C [10] was 80 % of control.

With `Nc1ccn(C2OC(CO)C(O)C2O)c(=O)n1` (stereo unspecified) the T/C (dose: 15.63 mg/kg/injection, schedule: Q01DX010 (sc), vehicle: water) was 100 % of control, the T/C (dose: 31.25 mg/kg/injection, schedule: Q01DX010 (sc), vehicle: water) was 102 % of control and the T/C (dose: 500.0 mg/kg/injection, schedule: Q04DX004 (sc), vehicle: saline) was 62 % of control. For the same molecule, the T/C [8] was 77 % of control and the T/C (dose: 1000.0 mg/kg/injection, schedule: Q04DX004 (sc), vehicle: saline) was 19 % of control.

With `C[C@]12CC[C@@H]3c4ccc(OC(=O)Cc5ccc(N(CCCl)CCCl)cc5)cc4CC[C@H]3[C@@H]1CC[C@@H]2OC(=O)Cc1ccc(N(CCCl)CCCl)cc1` the T/C [1] was 106 % of control, the T/C (dose: 400.0 mg/kg/injection, schedule: Q04DX004 (sc), vehicle: saline with Tween-80) was 70 % of control and the T/C (dose: 800.0 mg/kg/injection, schedule: Q04DX004 (sc), vehicle: saline with Tween-80) was 113 % of control. The T/C (dose: 1600.0 mg/kg/injection, schedule: Q04DX004 (sc), vehicle: saline with Tween-80) was 111 % of control.

`Cn1cnc([N+](=O)[O-])c1Sc1ncn[nH]1` was tested, and the T/C (dose: 200.0 mg/kg/injection, schedule: Q04DX004 (sc), vehicle: suspension in saline) was 49 % of control.

In the case of `Nc1cc(Cl)c2[nH]cnc2n1`, the T/C (dose: 100.0 mg/kg/injection, schedule: Q04DX004 (sc), vehicle: water) is reported as 160 % of control and the T/C (dose: 400.0 mg/kg/injection, schedule: Q04DX004 (sc), vehicle: water) is reported as 96 % of control.

In the case of `CC(=O)O[C@@H]1[C@@H](O)C2=C3[C@]4(C)[C@@H]1C(C)(C)C(=O)C[C@@H]4[C@]3(O)[C@H](OC(C)=O)[C@@]1(C[C@@H]1C)C2=O`, the T/C (dose: 12.5 mg/kg/injection, schedule: Q01DX010 (sc), vehicle: saline with Tween-80) is reported as 77 % of control, the T/C [5] is reported as 122 % of control and the T/C [6] is reported as 26 % of control. For the same molecule, the T/C [7] was 68 % of control.

In the case of `O=c1oc2c(O)c(O)cc3c(=O)oc4c(O)c(O)cc1c4c23`, the T/C [2] is reported as 93 % of control, the T/C [4] is reported as 161 % of control and the T/C [11] is reported as 201 % of control.

With `CCCCCCCCNc1cc2c3c(c1)CCCN3CCC2` the T/C (dose: 3.0 mg/kg/injection, schedule: Q04DX004 (sc), vehicle: Klucel (hydroxypropylcellulose) (HPC)) was 69 % of control, the T/C (dose: 6.0 mg/kg/injection, schedule: Q04DX004 (sc), vehicle: Klucel (hydroxypropylcellulose) (HPC)) was 103 % of control and the T/C (dose: 12.0 mg/kg/injection, schedule: Q04DX004 (sc), vehicle: Klucel (hydroxypropylcellulose) (HPC)) was 73 % of control.

With `O=C1C(O)=C(c2ccccc2)C(=O)C(O)=C1c1ccccc1` the T/C [12] was 95 % of control and the T/C [13] was 60 % of control.

For `Cn1cnc([N+](=O)[O-])c1[Se]c1nc(N)nc2nc[nH]c12`, the T/C (dose: 50.0 mg/kg/injection, schedule: Q01DX010 (sc), vehicle: water) was 100 % of control.

`O=C1SC(c2ccccc2)=S=C1c1ccccc1` was tested, and the T/C [9] was 102 % of control and the T/C [10] was 90 % of control.

`Nc1ncnc2c1ncn2C1OC(CO)C(O)C1O` (stereo unspecified) was tested, and the T/C (dose: 37.5 mg/kg/injection, schedule: Q04DX004 (sc), vehicle: saline) was 97 % of control, the T/C [12] was 84 % of control and the T/C [2] was 67 % of control. For the same molecule, the T/C [13] was 44 % of control, the T/C [3] was 78 % of control and the T/C [4] was 94 % of control. The T/C [11] was 66 % of control.
